Results from patent US10058550B2, “Methods of treating heart failure” (priority 2015, dated 2018).

biological target: human APJ receptor (Homo sapiens (Human), UniProt P35414); assay: biochemical; format: biochemical; conditions: read-out: Activity hAPJ SPA EC50 IP
Summary of the method: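 Membranes from CHO cells stably expressing cloned human APJ were incubated with WGA SPA beads in 20 mM HEPES pH 7.5, 5 mM MgCl2, 0.1% BSA, 200 mM NaCl and 3 μM GDP. Reaction started with 0.2 nM [35S]GTPγS ± ligands, 90 min at RT. EC50 obtained by non-linear regression as mean of independent experiments.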

Chain of human APJ receptor (P35414 whole entry): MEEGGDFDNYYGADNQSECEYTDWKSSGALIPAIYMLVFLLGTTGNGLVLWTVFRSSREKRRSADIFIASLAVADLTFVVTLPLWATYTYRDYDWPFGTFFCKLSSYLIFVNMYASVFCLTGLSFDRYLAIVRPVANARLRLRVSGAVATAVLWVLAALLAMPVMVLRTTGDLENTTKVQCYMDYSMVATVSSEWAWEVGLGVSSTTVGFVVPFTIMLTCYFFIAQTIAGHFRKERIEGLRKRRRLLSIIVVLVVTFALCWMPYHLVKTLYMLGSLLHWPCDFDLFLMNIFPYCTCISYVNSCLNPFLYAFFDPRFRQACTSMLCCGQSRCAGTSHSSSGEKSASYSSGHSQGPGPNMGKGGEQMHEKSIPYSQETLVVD

SMILES	EC50
COc1cccc(OC)c1-n1c(NS(=O)(=O)CCc2ccc(F)cc2C#N)nnc1-c1cncc(C)c1 [Example 621.0, 2-(2-cyano-4-fluorophenyl)-N-(4-(2,6-dimethoxyphenyl)-5-(5-methyl-3-pyridinyl)-4H-1,2,4-triazol-3-yl)ethanesulfonamide]	0.84 nM
COc1ncnc(OC)c1-n1c(NS(=O)(=O)[C@@H](C)[C@H](OC)c2ncc(C)cn2)nnc1-c1ccccn1 [Example 628.0, (1R,2S)-N-(4-(4,6-dimethoxy-5-pyrimidinyl)-5-(2-pyridinyl)-4H-1,2,4-triazol-3-yl)-1-methoxy-1-(5-methyl-2-pyrimidinyl)-2-propanesulfonamide]	6.5 nM
COc1cccc(OC)c1-n1c(NS(=O)(=O)[C@@H](C)[C@H](OC)c2ncc(C)cn2)nnc1-c1ccccn1 [Example 629.0, (1R,2S)-N-(4-(2,6-dimethoxyphenyl)-5-(2-pyridinyl)-4H-1,2,4-triazol-3-yl)-1-methoxy-1-(5-methyl-2-pyrimidinyl)-2-propanesulfonamide]	1.6 nM
COCCOc1cccc(-c2nnc(NS(=O)(=O)[C@@H](C)[C@H](C)c3ncc(F)cn3)n2-c2c(OC)cccc2OC)n1 [Example 638.0, (2S,3R)-N-(4-(2,6-dimethoxyphenyl)-5-(6-(2-methoxyethoxy)pyridin-2-yl)-4H-1,2,4-triazol-3-yl)-3-(5-fluoropyrimidin-2-yl)butane-2-sulfonamide]	0.65 nM
CNc1cccc(-c2nnc(NS(=O)(=O)[C@@H](C)[C@H](C)c3ncc(F)cn3)n2-c2c(OC)cccc2OC)n1 [Example 641.0, (2S,3R)-N-(4-(2,6-dimethoxyphenyl)-5-(6-(methylamino)pyridin-2-yl)-4H-1,2,4-triazol-3-yl)-3-(5-fluoropyrimidin-2-yl)butane-2-sulfonamide]	0.14 nM
COc1cccc(OC(F)F)c1-n1c(NS(=O)(=O)[C@@H](C)[C@H](OC)c2ncc(C)cn2)nnc1-c1cccnc1 [Example 667.0, (1R,2S,P)-N-(4-(2-(difluoromethoxy)-6-methoxyphenyl)-5-(3-pyridinyl)-4H-1,2,4-triazol-3-yl)-1-methoxy-1-(5-methyl-2-pyrimidinyl)-2-propanesulfonamide and (1R,2S,M)-N-(4-(2-(difluoromethoxy)-6-methoxyphenyl)-5-(3-pyridinyl)-4H-1,2,4-triazol-3-yl)-1-methoxy-1-(5-methyl-2-pyrimidinyl)-2-propanesulfonamide]	2.6 nM
COc1cccc(OC(F)F)c1-n1c(NS(=O)(=O)[C@@H](C)[C@H](OC)c2ncc(C)cn2)nnc1-c1cncc(C)c1 [Example 668.0, (1R,2S,P)-N-(4-(2-(difluoromethoxy)-6-methoxyphenyl)-5-(5-methyl-pyridinyl)-4H-1,2,4-triazol-3-yl)-1-methoxy-1-(5-methyl-2-pyrimidinyl)-2-propanesulfonamide and (1R,2S,M)-N-(4-(2-(difluoromethoxy)-6-methoxyphenyl)-5-(5-methyl-3-pyridinyl)-4H-1,2,4-triazol-3-yl)-1-methoxy-1-(5-methyl-2-pyrimidinyl)-2-propanesulfonamide]	0.76 nM
CO[C@H](c1ncc(C)cn1)[C@H](C)S(=O)(=O)Nc1nnc(-c2cccnc2)n1-c1c(OC(F)F)cccc1OC(F)F [Example 669.0, (1R,2S)-N-(4-(2,6-bis(difluoromethoxy)phenyl)-5-(3-pyridinyl)-4H-1,2,4-triazol-3-yl)-1-methoxy-1-(5-methyl-2-pyrimidinyl)-2-propanesulfonamide]	2.7 nM
CO[C@H](c1ncc(C)cn1)[C@H](C)S(=O)(=O)Nc1nnc(-c2cncc(C)c2)n1-c1c(OC(F)F)cccc1OC(F)F [Example 670.0, (1R,2S)-N-(4-(2,6-bis(difluoromethoxy)phenyl)-5-(5-methyl-3-pyridinyl)-4H-1,2,4-triazol-3-yl)-1-methoxy-1-(5-methyl-2-pyrimidinyl)-2-propanesulfonamide]	0.55 nM
